Results as given in the NIST ThermoML archive (doi:10.1021/je100526j).
“And” between values parts separate entries of the source, which are not always exact repeats. Equal entries are not always repeated.

Experiments:
[1] = for mass density: Liquid; for Normal melting temperature: Crystal, visual observation
[2] = xn = mol fraction of the nth substance listed; details: 101 kPa, Liquid

c1cc[nH]c1 [pyrrole]
[1], Vibrating tube method
Details | mass density [kg/m3]
298.15 K, 100 kPa | 965.54
298.15 K, 101 kPa | 965.54
298.15 K, 500 kPa | 965.71
298.15 K, 1000 kPa | 966
298.15 K, 1500 kPa | 966.3
298.15 K, 2000 kPa | 966.59
298.15 K, 2500 kPa | 966.9
298.15 K, 3000 kPa | 967.19
298.15 K, 4000 kPa | 967.77
298.15 K, 5000 kPa | 968.35
308.15 K, 101 kPa | 956.83
318.15 K, 101 kPa | 948.03
328.15 K, 101 kPa | 939.14
338.15 K, 101 kPa | 930.13

Details | Normal melting temperature
[1] | -23.5 °C and -23.4 °C

C1CCCCC1 [cyclohexane]
[1], 101 kPa
Details | mass density [kg/m3]
298.15 K | 773.87
308.15 K | 764.38
318.15 K | 754.77
328.15 K | 745.04
338.15 K | 735.18

Details | Normal melting temperature [°C]
[1] | 7

c1ccccc1 [benzene]
[1], 101 kPa
Details | mass density [kg/m3]
298.15 K | 873.63
308.15 K | 862.91
318.15 K | 852.12
328.15 K | 841.24
338.15 K | 830.26

Details | Normal melting temperature [°C]
[1] | 5.5

C1CCCCC1 [cyclohexane] + c1cc[nH]c1
[2], x2 = 0
Details | mass density [kg/m3]
298.15 K | 773.87
308.15 K | 764.38
318.15 K | 754.77
328.15 K | 745.04
338.15 K | 735.18

c1ccccc1 [benzene] + c1cc[nH]c1
[2], x2 = 0
Details | mass density [kg/m3]
298.15 K | 873.63
308.15 K | 862.91
318.15 K | 852.12
328.15 K | 841.24
338.15 K | 830.26

c1cc[nH]c1 [pyrrole] + C1CCCCC1
mass density [kg/m3], [2]
Details | 298.15 K | 308.15 K | 318.15 K | 328.15 K | 338.15 K
x1 = 0.0749 | 786.03 | 776.43 | 766.72 | 756.88 | 746.91
x1 = 0.1409 | 797.78 | 788.17 | 778.44 | 768.58 | 758.6
x1 = 0.1864 | 805.48 | 795.87 | 786.14 | 776.3 | 766.32
x1 = 0.2637 | 819.91 | 810.32 | 800.64 | 790.86 | 780.96
x1 = 0.3549 | 837.14 | 827.63 | 818.03 | 808.35 | 798.62
x1 = 0.4446 | 854.23 | 844.82 | 835.34 | 825.81 | 816.3
x1 = 0.5058 | 866.13 | 856.8 | 847.4 | 837.91 | 828.38
x1 = 0.6032 | 884.76 | 875.58 | 866.33 | 856.97 | 847.56
x1 = 0.6712 | 898.56 | 889.48 | 880.32 | 870.17 | 861.68
x1 = 0.7183 | 908.28 | 899.28 | 890.2 | 881.03 | 871.79
x1 = 0.761 | 916.78 | 907.83 | 898.79 | 889.65 | 880.41
x1 = 0.8376 | 932.14 | 923.29 | 914.35 | 905.29 | 896.1
x1 = 0.8824 | 941.41 | 932.59 | 923.7 | 914.69 | 905.55
x1 = 0.9424 | 953.79 | 945.05 | 936.21 | 927.25 | 918.18
x1 = 1 | 965.54 | 956.83 | 948.03 | 939.14 | 930.13

c1cc[nH]c1 [pyrrole] + c1ccccc1
mass density [kg/m3], [2]
Details | 298.15 K | 308.15 K | 318.15 K | 328.15 K | 338.15 K
x1 = 0.0447 | 878.11 | 867.49 | 856.79 | 846 | 835.1
x1 = 0.1287 | 886.6 | 876.17 | 865.66 | 855.06 | 844.34
x1 = 0.2144 | 894.89 | 884.68 | 874.36 | 863.95 | 853.41
x1 = 0.3142 | 904.35 | 894.36 | 884.28 | 874.1 | 863.91
x1 = 0.3916 | 911.83 | 902.01 | 892.11 | 882.08 | 871.95
x1 = 0.503 | 922.04 | 912.44 | 902.77 | 892.98 | 883.08
x1 = 0.5973 | 930.57 | 921.15 | 911.66 | 902.07 | 892.35
x1 = 0.6693 | 936.98 | 927.73 | 918.38 | 908.92 | 899.34
x1 = 0.7371 | 942.99 | 933.85 | 924.62 | 915.29 | 905.82
x1 = 0.8207 | 950.33 | 941.34 | 932.26 | 923.07 | 913.74
x1 = 0.8732 | 954.72 | 945.81 | 936.8 | 927.7 | 918.46
x1 = 0.9214 | 958.96 | 950.13 | 941.21 | 932.19 | 923.04
x1 = 0.979 | 963.65 | 954.92 | 946.08 | 937.17 | 928.12
x1 = 1 | 965.54 | 956.83 | 948.03 | 939.14 | 930.13
